Key:
[1] = tested on: B-16 cells (malignant melanoma); assay: Malignant melanoma in mice: survival; type: in vivo
Description: In vivo studies were carried out to assess the effect of the above combination therapy, both in the solution form and in the microencapsulated form in the treatment of cancer, in order to examine any possible advantages of the microencapsulated form of the drugs. The cytokine levels (eg. TNFa and IL1β were also evaluated after treatment.
Male C57BL/6 mice weighing approximately 18-20 g were anesthetized with light ether vapor and were injected subcutaneously with B-16 cells (1×10^6 cells). Their weights, tumor size and survival rate (in days) were measured daily. The tumor size was followed by measuring the long axis of the tumor daily. The study began once the tumor size reached 0.5 cm in diameter. The animals were divided into control and treatment groups. The control groups received phosphate buffered saline, blank PLGA microspheres or blank albumin microspheres. The treated groups received the following dosing schedule: Methotrexate solution (2 mg/kg or 15 mg/kg) administered s.c. daily or every three days. The M-CSF solution (10 microgram/kg or 100 microgram/kg) administered i.p. daily. The MTX microspheres (2 mg/kg or 15 mg/kg) and/or the M-CSF microspheres (10 microgram/kg or 100 microgram/kg) administered s.c. and i.p. respectively, alone or in combination therapy.

[2] = tested on: OKT3 induced TNFa release; assay: Inhibition of OKT3 induced cytokine release in blood: TNFa; type: cell-based; settings: human blood, OKT3 1 μg/mL, 37° C., 24 hr; Grp 2 OKT3+Blank MC, Grp 3 TNFa NA 1 μg/mL+IL1β NA 2 μg/mL+OKT3
Excerpt: (§1) OKT3 is a murine monoclonal antibody to the CD3 antigen of human T cells and is used to treat transplant rejection. The high incidence of adverse reactions associated with OKT3 is thought to be related to the induction of cytokines. The purpose of this study was to determine if microencapsulated (MC) neutralizing antibodies (NA) to human TNFa and IL1β which are readily phagocytized by macrophages can inhibit the release of TNFa, IL1β, and IL6 following OKT3 challenge in vitro.
(§2) Microcapsules were prepared using the method from Example 1 using an albumin matrix. Blood was collected from 10 healthy subjects and separated into aliquots for the following groups. • Grp 1) Blank MC • Grp 2) OKT3 1 μg/mL+Blank MC • Grp 3) TNFa NA 1 μg/mL+IL1β NA 2 μg/mL+OKT3 1 μg/mL. Aliquots were incubated at 37° C. for 24 hr. Blood was assayed for TNFa, […], and IL6 at 0, 2, 6, 24 hr by ELISA. C) Results

[3] = tested on: OKT3 induced IL6 release; assay: Inhibition of OKT3 induced cytokine release in blood: IL6; type: cell-based; settings: human blood, OKT3 1 μg/mL, 37° C., 24 hr
Excerpt: as §1, §2

## CN(Cc1cnc2nc(N)nc(N)c2n1)c1ccc(C(=O)N[C@@H](CCC(=O)O)C(=O)O)cc1 [MTX solution, methotrexate]
[1]; 2 mg/kg s.c. every 3 days
  mean survival: 12.8 days
[1]; 15 mg/kg s.c. every 3 days
  mean survival time: 14.2 days

## OKT3: murine monoclonal antibody to the CD3 antigen of human T cells
[2]
  Peak TNFa: 655 ± 71 pg/mL
[3]
  Peak IL6: 664 ± 60 pg/mL

B1: M-CSF solution: Macrophage colony stimulating factor in solution (protein, UniProt P09603 33-554, looked up)
Macrophage colony-stimulating …: EEVSEYCSHMIGSGHLQSLQRLIDSQMETSCQITFEFVDQEQLKDPVCYLKKAFLLVQDIMEDTMRFRDNTPNAIAIVQLQELSLRLKSCFTKDYEEHDKACVRTFYETPLQLLEKVKNVFNETKNLLDKDWNIFSKNCNNSFAECSSQDVVTKPDCNCLYPKAIPSSDPASVSPHQPLAPSMAPVAGLTWEDSEGTEGSSLLPGEQPLHTVDPGSAKQRPPRSTCQSFEPPETPVVKDSTIGGSPQPRPSVGAFNPGMEDILDSAMGTNWVPEEASGEASEIPVPQGTELSPSRPGGGSMQTEPARPSNFLSASSPLPASAKGQQPADVTGTALPRVGPVRPTGQDWNHTPQKTDHPSALLRDPPEPGSPRISSLRPQGLSNPSTLSAQPQLSRSHSSGSVLPLGELEGRRSTRDRRSPAEPEGGPASEGAARPLPRFNSVPLTDTGHERQSEGSFSPQLQESVFHLLVPSVILVLLAVGGLLFYRWRRRSHQEPQRADSPLEQPEGSPLTQDDRQVELPV
[1]; 10 microgram/kg i.p. daily
  mean survival time: 14,2 days

Source: patent US7105158B1, “Methods of administering microencapsulated materials for immune modulated diseases” (priority 1992, dated 2006)
